# Data: the Kinase Knowledgebase extract (Sharma et al. 2016)
# Target: PIK3CG (human) (UniProt P48736)
# Assay: Inhibition of PIK3CG Kinase Activity
# Chain of PIK3CG (human) (P48736 whole entry, looked up): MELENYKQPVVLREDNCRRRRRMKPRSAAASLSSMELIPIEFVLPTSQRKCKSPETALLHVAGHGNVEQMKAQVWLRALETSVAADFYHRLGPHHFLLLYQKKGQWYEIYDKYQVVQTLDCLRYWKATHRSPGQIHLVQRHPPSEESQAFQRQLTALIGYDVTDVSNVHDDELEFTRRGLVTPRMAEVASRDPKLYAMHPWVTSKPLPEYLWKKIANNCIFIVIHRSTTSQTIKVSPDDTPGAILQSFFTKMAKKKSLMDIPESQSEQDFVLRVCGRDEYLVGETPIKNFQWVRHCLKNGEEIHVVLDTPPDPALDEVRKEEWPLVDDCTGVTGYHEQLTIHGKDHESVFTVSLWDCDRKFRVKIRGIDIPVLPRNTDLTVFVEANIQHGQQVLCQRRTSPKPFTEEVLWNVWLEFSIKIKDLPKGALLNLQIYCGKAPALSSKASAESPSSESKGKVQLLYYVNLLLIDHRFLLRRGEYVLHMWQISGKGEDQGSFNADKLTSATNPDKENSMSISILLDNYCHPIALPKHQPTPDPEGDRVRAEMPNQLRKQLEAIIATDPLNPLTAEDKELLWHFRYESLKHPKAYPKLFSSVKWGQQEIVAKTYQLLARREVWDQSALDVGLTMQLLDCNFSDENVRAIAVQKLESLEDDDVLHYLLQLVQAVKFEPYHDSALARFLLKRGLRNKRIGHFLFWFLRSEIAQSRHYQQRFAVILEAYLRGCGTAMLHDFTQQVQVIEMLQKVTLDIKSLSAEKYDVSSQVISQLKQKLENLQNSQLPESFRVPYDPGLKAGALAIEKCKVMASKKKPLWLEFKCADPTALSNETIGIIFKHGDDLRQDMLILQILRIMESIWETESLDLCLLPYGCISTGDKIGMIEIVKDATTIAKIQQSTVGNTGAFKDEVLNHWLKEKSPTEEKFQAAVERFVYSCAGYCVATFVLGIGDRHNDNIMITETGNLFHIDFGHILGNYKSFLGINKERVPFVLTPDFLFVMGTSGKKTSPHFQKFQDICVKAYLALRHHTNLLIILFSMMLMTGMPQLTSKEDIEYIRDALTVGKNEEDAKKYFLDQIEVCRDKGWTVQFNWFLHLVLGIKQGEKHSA
row,IC50,Compound
1,< 0.6 µM,CC(=O)Nc1nc2c(s1)-c1c(c(C3CC3)nn1-c1ccc(C(=O)NC3CCN(C4CCOCC4)CC3)c(F)c1)CC2
2,< 0.6 µM,CC(=O)Nc1nc2c(s1)-c1c(c(C3CC3)nn1-c1ccc(C(=O)N(C)[C@H]3CCN(C4CCCCC4)C3)cc1F)CC2
3,< 0.6 µM,CC(=O)Nc1nc2c(s1)-c1c(c(C3CC3)nn1-c1ccc(C(=O)N(C)[C@H]3CC[C@@H](N(C)CC4CCCC4)CC3)c(Cl)c1)CC2
4,< 0.6 µM,CC(=O)Nc1nc2c(s1)-c1c(c(C3CC3)nn1-c1ccc(C(=O)N[C@H]3CC[C@@H](N4CCCC4)CC3)cc1F)CC2
5,< 0.6 µM,CNC(=O)c1ccc(-n2nc(C3CC3)c3c2-c2sc(NC(C)=O)nc2CC3)c(Cl)c1
6,< 0.6 µM,CC(=O)Nc1nc2c(s1)-c1c(c(C3CC3)nn1-c1ccc(C(=O)N3CCC(N(C)C4CCCC4)CC3)cc1Cl)CC2
7,< 0.6 µM,CC(=O)Nc1nc2c(s1)-c1c(c(C3CC3)nn1-c1ccc(C(=O)NC3CCN(C4CCCCC4)CC3)cc1F)CC2
8,< 0.6 µM,CC(=O)Nc1nc2c(s1)-c1c(c(C3CC3)nn1-c1ccc(C(=O)NC3CCN(C4CCCC4)CC3)c(Cl)c1)CC2
9,< 0.6 µM,CC(=O)Nc1nc2c(s1)-c1c(c(C3CC3)nn1-c1ccc(CC(=O)N(C)[C@H]3CC[C@@H](N4CCCC4)CC3)cc1Cl)CC2
10,< 0.6 µM,CCCN1CCC(C(=O)Nc2ccc(-n3nc(C4CC4)c4c3-c3sc(NC(C)=O)nc3CC4)c(Cl)c2)CC1
11,< 0.6 µM,CC(=O)Nc1nc2c(s1)-c1c(c(C3CC3)nn1-c1ccc(C(=O)NC3CCN(C4CCCC4)CC3)cc1Cl)CC2
12,< 0.6 µM,CCCN1CC[C@@H](NC(=O)c2ccc(-n3nc(C4CC4)c4c3-c3sc(NC(C)=O)nc3CC4)cc2F)C1
13,< 0.6 µM,CC(=O)Nc1nc2c(s1)-c1c(c(C3(C)CC3)nn1-c1ccc(C(=O)N[C@H]3CC[C@@H](N4CCCC4)CC3)cc1Cl)CC2
14,< 0.6 µM,CC(=O)Nc1nc2c(s1)-c1c(c(C3CC3)nn1-c1ccc(C(=O)N(C)CC3CCN(CC4CCCC4)CC3)c(Cl)c1)CC2
15,< 0.6 µM,CCCN1CCC(NC(=O)c2ccc(-n3nc(C4CC4)c4c3-c3sc(NC(C)=O)nc3CC4)c(Cl)c2)CC1
16,< 0.6 µM,CC(=O)Nc1nc2c(s1)-c1c(c(C3CCC3)nn1-c1ccccc1Cl)CC2
17,< 0.6 µM,CC(=O)Nc1nc2c(s1)-c1c(c(C3CC3)nn1C1CCN(C(=O)C3CCN(CC4CCCC4)CC3)CC1)CC2
18,< 0.6 µM,CCCN1CC[C@@H](NC(=O)c2ccc(-n3nc(C4CC4)c4c3-c3sc(NC(C)=O)nc3CC4)cc2Cl)C1
19,< 0.6 µM,CC(=O)Nc1nc2c(s1)-c1c(c(C3CC3)nn1-c1ccc(C(=O)NCC3CCN(CC4CCCC4)CC3)c(Cl)c1)CC2

row,Compound,IC50
1,CC(=O)Nc1nc2c(s1)-c1c(c(C3CC3)nn1-c1ccc(C(=O)N[C@H]3CN4CCC3CC4)c(Cl)c1)CC2,< 0.6 µM
